Values after ≈ are worked out from the molar mass of the structure shown.
Assays:
Trichophyton tonsurans = experiment: Antidermatophyte activity, plaque growth inhibition; format: cell-based, Trichophyton tonsurans CBS 483.76; conditions: 100 μg/mL, SDA, read-out: % Inhibition Growth T. tonsurans
Procedure: (§1) The dermatophytes used in this study were Epidermophyton floccosum var. floccosum (Netherlands) CBS 358.93 strain, Trichophyton tonsurans (Netherlands) CBS 483.76 strain, Trichophyton mentagrophytes (Netherlands) CBS 160.66 strain, Microsporum canis (Iran) CBS 131,110 strain, and Microsporum gypseum (Iran) CBS 130,948 strain. All dermatophytes were maintained at 4 °C as agar slants on SDA. Candida albicans (ATCC 10231) was maintained at 4 °C on SDA plate.
(§2) The in vitro antifungal activity against the five selected dermatophytes was evaluated, as previously described, using the plaque growth inhibition method. All compounds were evaluated at the final concentration of 100 µg/mL. The percentages of growth inhibition according to Equation (5) were calculated as the average of three different experiments. I = [(C − T)/C] × 100%,(5) where I is the percentage value of growth inhibition, C is the measure of the diameter of the control circular mycelial inoculum (mm) and T is the extended diameter of the treated mycelial inoculum (mm).
(§3) All synthesized benzothiazole derivatives were evaluated to evaluate their in vitro antifungal activity against the five pathogenic dermatophytes that cause the most common dermatomycoses: Microsporum gypseum, Microsporum canis, Trichophyton mentagrophytes, Trichophyton tonsurans and Epidermophyton floccosum. All compounds were tested at a concentration of 100 µg/mL in DMSO, to evaluate the ability to inhibit the growth of dermatophyte cultures in Sabouraud Dextrose Agar (SDA). Briefly, room temperature incubation was performed and dermatophyte inhibition assessed by measuring the colony diameter at each disc for 7 days. The results are shown in Table 3 and were determined as the average of three different experiments.

Epidermophyton floccosum = experiment: as above; format: cell-based, Epidermophyton floccosum var. floccosum CBS 358.93; conditions: 100 μg/mL, SDA, read-out: % Inhibition Growth E. floccosum
Procedure: as §1, §2, §3

[1] = test system: Candida albicans (ATCC 10231); experiment: Anti-Candida albicans activity, broth microdilution MIC; format: cell-based; conditions: Candida albicans, ATCC10231; 24 h of incubation
Procedure: as §1
The suspension of Candida albicans consists of the dispersion of an aliquot in 5 mL of sterilized water. The compounds and fluconazole, used as a positive control, were solubilized in DMSO (12.80 mg/mL) as stock solutions. Minimum inhibitory concentration (MIC) was performed by the broth microdilution method according to the approved standard M27-A3, 2008 [NCCLS] of the Clinical and Laboratory Standards Institute/National Committee for Clinical Laboratory Standards (CLSI/NCCLS), as described previously.
Candida is a strain of fungi known to transmit infections to different parts of the human body, including the skin [43], which is why the synthesized compounds have also been tested against Candida Albicans (ATCC 10231). For each of them the minimum inhibitory concentration (MIC) was determined by the broth microdilution method using RPMI 1640 + MOPS as culture medium. […] Fluconazole was used as a positive control drug. […] Similarly to the results observed on dermatophytes, therefore, the unsubstituted compounds in position 6 of benzimidazole gave activity on yeasts, except for compound 8a.

Microsporum gypseum = experiment: Antidermatophyte activity, plaque growth inhibition; format: cell-based, Microsporum gypseum CBS 130,948; conditions: Nannizzia gypsea; 100 μg/mL, SDA; read-out: % Inhibition Growth M. gypseum
Procedure: as §1, §2, §3

Microsporum canis = experiment: as above; format: cell-based, Microsporum canis CBS 131,110; conditions: 100 μg/mL, SDA, read-out: % Inhibition Growth M. canis
Procedure: as §1, §2, §3

[2] = test system: Trichophyton mentagrophytes; experiment: as above; format: cell-based, Trichophyton mentagrophytes CBS 160.66; conditions: 100 μg/mL, SDA, read-out: % Inhibition Growth T. mentagrophytes
Procedure: as §1, §2, §3

## OC(Cn1cncn1)(Cn1cncn1)c1ccc(F)cc1F [Fluconazole, reference compound]
Trichophyton tonsurans
  inhibition at 100 µg/mL: 18.7 ± 0.62%
Epidermophyton floccosum
  inhibition at 100 µg/mL: 0.12 ± 0.004%
[1]
  MIC: 0.5 µg/mL (≈ 1.63 µM)
Microsporum gypseum
  inhibition at 100 µg/mL: 18.2 ± 0.9%
Microsporum canis
  inhibition at 100 µg/mL: 30.1 ± 0.4%
[2]
  inhibition at 100 µg/mL: 3.75 ± 0.24%
